Experimental data as given in the supplement of paper PMC10307832.

Columns and labels:
Assay in all cases: relative viability (nuclei count vs DMSO), 5 days (fraction); higher = more cells survive
ChaGo-K-1 = system: ChaGo-K-1
Procedure, shortened: (§1)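 A single step with final 0.05% Triton X-100, 1% formaldehyde and 1 ug/ml Hoechst fixed the cells and stained nuclei 5 days after treatment. Lung cancer cell lines in 1536-well plates had been treated by pin tool the day after seeding with one drug alone or a fixed anchor-drug dose plus five library-drug doses (not always all listed) in √10 steps, and nuclei were counted on 4× images. Relative viability is the ratio of nuclei in treated wells to nuclei in vehicle wells, taken as the median of duplicate plates.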

EMC-BAC-2 = system: EMC-BAC-2
Procedure, shortened: as §1

HCC-366 = system: HCC-366
Procedure, shortened: as §1

HCC-78 = system: HCC-78
Procedure, shortened: as §1

HOP-62 = system: HOP-62
Procedure, shortened: as §1

LC-2-ad = system: LC-2-ad
Procedure, shortened: as §1

LK-2 = system: LK-2
Procedure, shortened: as §1

NCI-H1355 = system: NCI-H1355
Procedure, shortened: as §1

NCI-H1734 = system: NCI-H1734
Procedure, shortened: as §1

NCI-H1993 = system: NCI-H1993
Procedure, shortened: as §1

NCI-H2009 = system: NCI-H2009
Procedure, shortened: as §1

NCI-H2085 = system: NCI-H2085
Procedure, shortened: as §1

NCI-H2347 = system: NCI-H2347
Procedure, shortened: as §1

NCI-H2405 = system: NCI-H2405
Procedure, shortened: as §1

NCI-H3122 = system: NCI-H3122
Procedure, shortened: as §1

NCI-H596 = system: NCI-H596
Procedure, shortened: as §1

NCI-H838 = system: NCI-H838
Procedure, shortened: as §1

PC-14 = system: PC-14
Procedure, shortened: as §1

RERF-LC-KJ = system: RERF-LC-KJ
Procedure, shortened: as §1

SK-MES-1 = system: SK-MES-1
Procedure, shortened: as §1

SW 1573 = system: SW 1573
Procedure, shortened: as §1

**Q.** For O=C(O)CCCCC(CCSCc1ccccc1)SCc1ccccc1 (centres undefined) [CPI-613] + Nc1ncn([C@H]2C[C@H](O)[C@@H](CO)O2)c(=O)n1 [Decitabine] (partner 2 µM), which relative viability (ChaGo-K-1; first compound 5 µM) is on record?
**A.** 0.489

**Q.** And the relative viability (ChaGo-K-1; first compound 15.81 µM)?
**A.** 0.517

**Q.** What about the relative viability (ChaGo-K-1; first compound 50 µM) of the same compound?
**A.** 0.514

**Q.** And the relative viability (ChaGo-K-1; first compound 158.11 µM)?
**A.** 0.274

**Q.** What about the relative viability (ChaGo-K-1; first compound 500 µM) of the same compound?
**A.** 0.161

**Q.** And the relative viability (EMC-BAC-2; first compound 5 µM)?
**A.** 0.982

**Q.** And the relative viability (EMC-BAC-2; first compound 15.81 µM)?
**A.** 0.9

**Q.** What about the relative viability (EMC-BAC-2; first compound 50 µM) of the same compound?
**A.** 0.942

**Q.** And the relative viability (EMC-BAC-2; first compound 158.11 µM)?
**A.** 0.74

**Q.** And the relative viability (EMC-BAC-2; first compound 500 µM)?
**A.** 0.632

**Q.** And the relative viability (HCC-366; first compound 5 µM)?
**A.** 0.339

**Q.** What about the relative viability (HCC-366; first compound 15.81 µM) of the same compound?
**A.** 0.31

**Q.** What about the relative viability (HCC-366; first compound 50 µM) of the same compound?
**A.** 0.381

**Q.** What about the relative viability (HCC-366; first compound 158.11 µM) of the same compound?
**A.** 0.202

**Q.** And the relative viability (HCC-366; first compound 500 µM)?
**A.** 0.0146

**Q.** What about the relative viability (HCC-78; first compound 15.81 µM) of the same compound?
**A.** 0.709

**Q.** And the relative viability (HCC-78; first compound 50 µM)?
**A.** 0.836

**Q.** What about the relative viability (HCC-78; first compound 158.11 µM) of the same compound?
**A.** 0.691

**Q.** What about the relative viability (HCC-78; first compound 500 µM) of the same compound?
**A.** 0.742

**Q.** And the relative viability (HOP-62; first compound 5 µM)?
**A.** 0.186

**Q.** What about the relative viability (HOP-62; first compound 15.81 µM) of the same compound?
**A.** 0.235

**Q.** And the relative viability (HOP-62; first compound 50 µM)?
**A.** 0.191

**Q.** And the relative viability (HOP-62; first compound 158.11 µM)?
**A.** 0.173

**Q.** And the relative viability (HOP-62; first compound 500 µM)?
**A.** 0.0675

**Q.** And the relative viability (LC-2-ad; first compound 5 µM)?
**A.** 0.781

**Q.** What about the relative viability (LC-2-ad; first compound 15.81 µM) of the same compound?
**A.** 0.859

**Q.** And the relative viability (LC-2-ad; first compound 50 µM)?
**A.** 0.705

**Q.** What about the relative viability (LC-2-ad; first compound 158.11 µM) of the same compound?
**A.** 0.578

**Q.** And the relative viability (LC-2-ad; first compound 500 µM)?
**A.** 0.0132

**Q.** And the relative viability (LK-2; first compound 5 µM)?
**A.** 0.336

**Q.** What about the relative viability (LK-2; first compound 15.81 µM) of the same compound?
**A.** 0.274

**Q.** What about the relative viability (LK-2; first compound 50 µM) of the same compound?
**A.** 0.275

**Q.** What about the relative viability (LK-2; first compound 158.11 µM) of the same compound?
**A.** 0.313

**Q.** What about the relative viability (LK-2; first compound 500 µM) of the same compound?
**A.** 0.283

**Q.** And the relative viability (NCI-H1355; first compound 5 µM)?
**A.** 0.34

**Q.** What about the relative viability (NCI-H1355; first compound 15.81 µM) of the same compound?
**A.** 0.337

**Q.** What about the relative viability (NCI-H1355; first compound 50 µM) of the same compound?
**A.** 0.342

**Q.** What about the relative viability (NCI-H1355; first compound 158.11 µM) of the same compound?
**A.** 0.341

**Q.** And the relative viability (NCI-H1355; first compound 500 µM)?
**A.** 0.114

**Q.** And the relative viability (NCI-H1734; first compound 5 µM)?
**A.** 0.488

**Q.** And the relative viability (NCI-H1734; first compound 15.81 µM)?
**A.** 0.46

**Q.** What about the relative viability (NCI-H1734; first compound 50 µM) of the same compound?
**A.** 0.437

**Q.** What about the relative viability (NCI-H1734; first compound 158.11 µM) of the same compound?
**A.** 0.409

**Q.** What about the relative viability (NCI-H1734; first compound 500 µM) of the same compound?
**A.** 0.111

**Q.** What about the relative viability (NCI-H1993; first compound 5 µM) of the same compound?
**A.** 0.643

**Q.** What about the relative viability (NCI-H1993; first compound 15.81 µM) of the same compound?
**A.** 0.56

**Q.** And the relative viability (NCI-H1993; first compound 50 µM)?
**A.** 0.679

**Q.** What about the relative viability (NCI-H1993; first compound 158.11 µM) of the same compound?
**A.** 0.61

**Q.** And the relative viability (NCI-H1993; first compound 500 µM)?
**A.** 0.327

**Q.** And the relative viability (NCI-H2009; first compound 5 µM)?
**A.** 0.393

**Q.** What about the relative viability (NCI-H2009; first compound 15.81 µM) of the same compound?
**A.** 0.397

**Q.** And the relative viability (NCI-H2009; first compound 50 µM)?
**A.** 0.385

**Q.** And the relative viability (NCI-H2009; first compound 158.11 µM)?
**A.** 0.228

**Q.** And the relative viability (NCI-H2009; first compound 500 µM)?
**A.** 0.0406

**Q.** And the relative viability (NCI-H2085; first compound 5 µM)?
**A.** 0.536

**Q.** And the relative viability (NCI-H2085; first compound 15.81 µM)?
**A.** 0.525

**Q.** What about the relative viability (NCI-H2085; first compound 50 µM) of the same compound?
**A.** 0.568

**Q.** What about the relative viability (NCI-H2085; first compound 158.11 µM) of the same compound?
**A.** 0.437

**Q.** And the relative viability (NCI-H2085; first compound 500 µM)?
**A.** 0.208

**Q.** What about the relative viability (NCI-H2347; first compound 5 µM) of the same compound?
**A.** 0.652

**Q.** And the relative viability (NCI-H2347; first compound 15.81 µM)?
**A.** 0.553

**Q.** And the relative viability (NCI-H2347; first compound 50 µM)?
**A.** 0.706

**Q.** What about the relative viability (NCI-H2347; first compound 158.11 µM) of the same compound?
**A.** 0.614

**Q.** What about the relative viability (NCI-H2347; first compound 500 µM) of the same compound?
**A.** 0.347

**Q.** What about the relative viability (NCI-H2405; first compound 5 µM) of the same compound?
**A.** 0.754

**Q.** What about the relative viability (NCI-H2405; first compound 15.81 µM) of the same compound?
**A.** 0.72

**Q.** And the relative viability (NCI-H2405; first compound 50 µM)?
**A.** 0.709

**Q.** What about the relative viability (NCI-H2405; first compound 158.11 µM) of the same compound?
**A.** 0.674

**Q.** What about the relative viability (NCI-H2405; first compound 500 µM) of the same compound?
**A.** 0.535

**Q.** What about the relative viability (NCI-H3122; first compound 5 µM) of the same compound?
**A.** 0.344

**Q.** And the relative viability (NCI-H3122; first compound 15.81 µM)?
**A.** 0.439

**Q.** And the relative viability (NCI-H3122; first compound 50 µM)?
**A.** 0.481

**Q.** What about the relative viability (NCI-H3122; first compound 158.11 µM) of the same compound?
**A.** 0.376

**Q.** And the relative viability (NCI-H3122; first compound 500 µM)?
**A.** 0.185

**Q.** And the relative viability (NCI-H596; first compound 5 µM)?
**A.** 1.13

**Q.** And the relative viability (NCI-H596; first compound 15.81 µM)?
**A.** 0.965

**Q.** What about the relative viability (NCI-H596; first compound 50 µM) of the same compound?
**A.** 0.98

**Q.** And the relative viability (NCI-H596; first compound 158.11 µM)?
**A.** 0.866

**Q.** And the relative viability (NCI-H596; first compound 500 µM)?
**A.** 0.111

**Q.** And the relative viability (NCI-H838; first compound 5 µM)?
**A.** 0.449

**Q.** What about the relative viability (NCI-H838; first compound 15.81 µM) of the same compound?
**A.** 0.437

**Q.** What about the relative viability (NCI-H838; first compound 50 µM) of the same compound?
**A.** 0.386

**Q.** What about the relative viability (NCI-H838; first compound 158.11 µM) of the same compound?
**A.** 0.253

**Q.** And the relative viability (NCI-H838; first compound 500 µM)?
**A.** 0.104

**Q.** What about the relative viability (PC-14; first compound 5 µM) of the same compound?
**A.** 0.266

**Q.** And the relative viability (PC-14; first compound 15.81 µM)?
**A.** 0.201

**Q.** And the relative viability (PC-14; first compound 50 µM)?
**A.** 0.23

**Q.** What about the relative viability (PC-14; first compound 158.11 µM) of the same compound?
**A.** 0.109

**Q.** And the relative viability (PC-14; first compound 500 µM)?
**A.** 0.0133

**Q.** What about the relative viability (RERF-LC-KJ; first compound 5 µM) of the same compound?
**A.** 0.663

**Q.** And the relative viability (RERF-LC-KJ; first compound 15.81 µM)?
**A.** 0.619

**Q.** What about the relative viability (RERF-LC-KJ; first compound 50 µM) of the same compound?
**A.** 0.643

**Q.** What about the relative viability (RERF-LC-KJ; first compound 158.11 µM) of the same compound?
**A.** 0.272

**Q.** And the relative viability (RERF-LC-KJ; first compound 500 µM)?
**A.** 0.199

**Q.** What about the relative viability (SK-MES-1; first compound 5 µM) of the same compound?
**A.** 0.422

**Q.** And the relative viability (SK-MES-1; first compound 15.81 µM)?
**A.** 0.367

**Q.** What about the relative viability (SK-MES-1; first compound 50 µM) of the same compound?
**A.** 0.377

**Q.** What about the relative viability (SK-MES-1; first compound 158.11 µM) of the same compound?
**A.** 0.19

**Q.** And the relative viability (SK-MES-1; first compound 500 µM)?
**A.** 0.103

**Q.** What about the relative viability (SW 1573; first compound 5 µM) of the same compound?
**A.** 0.437

**Q.** And the relative viability (SW 1573; first compound 15.81 µM)?
**A.** 0.399

**Q.** And the relative viability (SW 1573; first compound 50 µM)?
**A.** 0.498

**Q.** And the relative viability (SW 1573; first compound 158.11 µM)?
**A.** 0.207

**Q.** And the relative viability (SW 1573; first compound 500 µM)?
**A.** 0.0549
